Patent publication US20040170653A1, “Tumour peptide antigen produced from human mdm2 proto-oncogene” (priority 2001, published 2004)
Where two headings read alike, the source gives them in different places.

Tests used:
mature DC = experiment: CTL recognition of activated mature dendritic cells, 6-hour cytotoxicity test; assay type: cell-based; conditions: cells loaded with peptide 10 μM
T2 cells = experiment: Cytotoxicity test (51Cr release) of hdm2 81-88-specific CTL on peptide-loaded T2 target cells (peptide titration, peptide specificity); assay type: cell-based, human; conditions: for absolute maximal lysis: peptide titration
[1] = tested on: A2K^b- and CD8×A2K^b transgenic mice; experiment: A2.1-restricted immunogenicity of synthetic peptides after immunization; cytotoxicity test of induced CTL on peptide-loaded T2A2K^b cells; assay type: in vivo, mouse; conditions: peptide immunization in IFA, in vitro stimulation, 4-hour cytotoxicity test
HLA-A2.1 = HLA-A2.1 (Homo sapiens, UniProt P04439, D140Y/D185E/D98H/E176V/E277Q/G131W/G231S/I119V/I121R/I166T/I218V/L300P/L318F/N151K/N90K/P208A/P217A/Q86G/Q94H/R138H/R169H/T345S); experiment: Competition test: inhibition of A2.1 binding of peptide p53 264-272, read as p53-specific CTL lysis of loaded EA2 cells; conditions: for inhibition of the A2.1 binding of the competing peptide p53 264-272: EA2 cells with 0.01 μg p53 264-272, 4-hour test; for A2.1-binding activity (in words): competitive binding test
resting B cells = experiment: CTL recognition of resting lymphohemopoietic cells, 6-hour cytotoxicity test; assay type: cell-based; conditions: cells loaded with peptide 10 μM
PBMC = experiment: as above; assay type: cell-based; conditions: cells loaded with peptide 10 μM
[2] = tested on: tyrosinase-specific CTL clone IVSB; experiment: CTL recognition of antigen-activated T cells, 6-hour cytotoxicity test; assay type: cell-based, human; conditions: cells loaded with peptide 10 μM
Description: FIG. 22: Absence of substantial recognition of antigen-activated T cells. CTL A2 81, CTL CD8×A2 K^b 81, allo-A2.1-reactive CTL and CTL CD8×A2 K^b Flu M1 were tested as effector cells under the E:T ratios indicated in a 6-hour cytotoxicity test against tyrosinase-specific CTL clone IVSB (●) and the same cells loaded with hdm2 81-88 peptide (10 μM) (▴). The target cells were treated with the anti-A2.1 monoclonal antibody PA2.1 as shown (∘).
An A2.1-positive CTL clone “IVSB” having specificity for the tyrosinase peptide 369-377 was produced and made available using technically customary methods.
The lytic reactivity of the effector cells against various target cells was checked in a ^51Cr release test (Theobald et al., 1995). T2 and T2A2 K^b cells were employed as target cells for peptide titration tests. 1-5 Mio target cells were labeled for 60-90 min with 150 μCi of Na (^51Cr) 04 (1 mCi/ml) (NEN Life Science, Belgium). […] The cells were then centrifuged off (1300 rpm, 5° C., 9 min), the supernatant (0.1 ml/well) was taken off and the ^51Cr release was measured using a gamma-“counter” (Canberra Packard, Dreieich). The percentage specific lysis (SL) was calculated according to the following formula: [formula] […]

EL4 cells (H-2^b) = experiment: Cytotoxicity test of hdm2 81-88-specific CTL on peptide-loaded A2.1-negative EL4 cells (A2.1 restriction); assay type: cell-based, mouse
resting T cells = experiment: CTL recognition of resting lymphohemopoietic cells, 6-hour cytotoxicity test; assay type: cell-based; conditions: cells loaded with peptide 10 μM

## LLGDLFGV [hdm2 81-88, oligopeptide, amino acid positions 81 to 88 of the hdm2 proto-oncoprotein]
Mature DC
  CTL lysis after loading with exogenous peptide: reconstituted
T2 cells; CTL line A2 81, E:T 10:1, 4-hour test, read-out: peptide concentration at half-maximal lysis of the target cells
  EC50: 0.069 nM
T2 cells; CTL line CD8×A2K^b 81, E:T 10:1, 4-hour test, read-out: peptide concentration at half-maximal lytic activity
  EC50: 0.036 nM
T2 cells; CTL lines A2 81 and CD8×A2 K^b 81, 4-hour test
  lysis of peptide-loaded T2 cells by both hdm2 81-88-specific CTL lines: lyzed efficiently
T2 cells; I° CTL A2 81, 6-hour test, read-out: peptide concentration at half-maximal lysis of the target cells
  EC50: 0.95 nM
T2 cells; I° CTL A2 81
  absolute maximal lysis: 62%
T2 cells; I° CTL CD8×A2 K^b 81, 6-hour test, read-out: peptide concentration at half-maximal lysis of the target cells
  EC50: 0.2 nM
T2 cells; I° CTL CD8×A2 K^b 81
  absolute maximal lysis: 100%
[1]
  A2.1-restricted and peptide-specific CTL response: demonstrated
HLA-A2.1; 10 μg test peptide
  inhibition of the A2.1 binding of the competing peptide p53 264-272: 100%
HLA-A2.1
  A2.1-binding activity (in words): strongly binding
Resting B cells
  CTL recognition after loading with exogenous peptide: reconstituted
PBMC
  CTL recognition after loading with exogenous peptide: reconstituted
[2]
  CTL lysis after loading with exogenous peptide: reconstitute
EL4 cells (H-2^b); CTL from immunized A2K^b- or CD8×A2K^b-transgenic mice, 2 μg peptide
  recognition of peptide-loaded EL4 cells by CTL induced by hdm2 81-88: not recognized
EL4 cells (H-2^b); CTL lines A2 81 and CD8×A2 K^b 81
  lytic activity of hdm2 81-88-reactive CTL lines on peptide-loaded EL4 cells: no lytic activity at all
Resting T cells
  CTL recognition after loading with exogenous peptide: reconstituted

## hdm2 33-41: synthetic hdm2 peptide, residues 33-41 (LLLKLLKSV; UniProt Q00987 33-41, looked up, fragment)
[1]
  A2.1-restricted and peptide-specific CTL response: demonstrated
HLA-A2.1; 10 μg test peptide
  inhibition of the A2.1 binding of the competing peptide p53 264-272: 100%
HLA-A2.1
  A2.1-binding activity (in words): strongly binding

## hdm2 48-57: synthetic hdm2 peptide, residues 48-57 (YTMKEVLFYL; UniProt Q00987 48-57, looked up, fragment)
HLA-A2.1; 10 μg test peptide
  inhibition of the A2.1 binding of the competing peptide p53 264-272: 100%

## hdm2 80-88: synthetic hdm2 peptide, residues 80-88; contaminated with hdm2 81-88 (DLLGDLFGV; UniProt Q00987 80-88, looked up, fragment)
T2 cells; HPLC fraction 23, T2 cells, CTL CD8×A2 K^b 81, E:T 20:1
  recognition of HPLC-purified peptide by hdm2 81-88-specific CTL: cross-reactivity
[1]
  A2.1-restricted and peptide-specific CTL response: demonstrated
HLA-A2.1; 10 μg test peptide
  inhibition of the A2.1 binding of the competing peptide p53 264-272: 100%
HLA-A2.1
  A2.1-binding activity (in words): strongly binding

## hdm2 101-110: intermediately binding synthetic hdm2 peptide, residues 101-110 (TMIYRNLVVV; UniProt Q00987 101-110, looked up, fragment)
[1]
  A2.1-restricted and peptide-specific CTL response: demonstrated
HLA-A2.1
  A2.1-binding activity (in words): intermediately binding

## tyrosinase 369-377: A2.1-binding peptide tyrosinase 369-377, positive control [reference compound]
HLA-A2.1; 3 μg test peptide
  inhibition of the A2.1 binding of the competing peptide p53 264-272: 100%
HLA-A2.1; 10 μg test peptide
  inhibition of the A2.1 binding of the competing peptide p53 264-272: 100%
